{
  "source": "ChEMBL document CHEMBL1201862",
  "about": "“PubChem BioAssay data set” (2004)",
  "key": {"[1]": {"test": "Trypanosoma cruzi growth suppression in host cells – NIH3T3 host cells, beta-gal luminescence, confirmation (AID 2044);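 also: luminescent beta-galactosidase reporter signal from transgenic T. cruzi replicating inside host cells; inhibitors lower the luminescence signal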", "type": "functional, cell-based"}, "INS1": {"system": "INS1", "test": "INS-1E survival protection against cytokine death – cell-based, luminescence, retest, dose response (AID 449756);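 also: cell death triggered by IL-1 beta plus TNF-alpha plus IFN-gamma mixture; protective hits raise ATP signal compared with cytokine alone wells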", "type": "functional", "details": "Rattus norvegicus, INS1"}, "[2]": {"test": "NIH3T3 cell viability loss – ATP luminescence, mouse fibroblasts, counter-screen, dose response (AID 2010);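 also: cells exposed to compound for about 90 hours before reading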", "type": "functional, cell-based"}, "[3]": {"test": "intracellular Trypanosoma cruzi inhibitors in host cells – cell-based, plate reader, cherry-pick samples, set 3, dose response (AID 651818);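 also: compounds incubated with infected cells for about four days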", "type": "functional"}, "Estrogen receptor": {"molecular_target": "T1, Estrogen receptor (Homo sapiens, UniProt P03372)", "T1 sequence (P03372 whole entry)": "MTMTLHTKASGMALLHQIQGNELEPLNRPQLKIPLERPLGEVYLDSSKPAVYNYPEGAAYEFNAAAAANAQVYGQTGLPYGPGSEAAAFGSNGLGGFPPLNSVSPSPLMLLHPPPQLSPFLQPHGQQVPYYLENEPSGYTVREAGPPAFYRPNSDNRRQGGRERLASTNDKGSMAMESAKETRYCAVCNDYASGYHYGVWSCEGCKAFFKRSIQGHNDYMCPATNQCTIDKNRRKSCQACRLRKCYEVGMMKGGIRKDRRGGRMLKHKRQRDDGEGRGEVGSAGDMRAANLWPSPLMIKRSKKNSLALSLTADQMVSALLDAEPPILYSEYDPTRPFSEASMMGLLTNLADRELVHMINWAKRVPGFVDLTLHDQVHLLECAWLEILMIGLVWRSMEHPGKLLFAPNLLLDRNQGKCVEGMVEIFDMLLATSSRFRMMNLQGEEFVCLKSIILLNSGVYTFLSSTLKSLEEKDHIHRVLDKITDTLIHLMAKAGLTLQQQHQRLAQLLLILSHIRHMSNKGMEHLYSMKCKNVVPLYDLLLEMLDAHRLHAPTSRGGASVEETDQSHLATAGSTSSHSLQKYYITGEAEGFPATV"}, "[4]": {"molecular_target": "T2, DNA repair and recombination protein RAD54-like (Homo sapiens, UniProt Q92698)", "T2 sequence (Q92698 whole entry)": "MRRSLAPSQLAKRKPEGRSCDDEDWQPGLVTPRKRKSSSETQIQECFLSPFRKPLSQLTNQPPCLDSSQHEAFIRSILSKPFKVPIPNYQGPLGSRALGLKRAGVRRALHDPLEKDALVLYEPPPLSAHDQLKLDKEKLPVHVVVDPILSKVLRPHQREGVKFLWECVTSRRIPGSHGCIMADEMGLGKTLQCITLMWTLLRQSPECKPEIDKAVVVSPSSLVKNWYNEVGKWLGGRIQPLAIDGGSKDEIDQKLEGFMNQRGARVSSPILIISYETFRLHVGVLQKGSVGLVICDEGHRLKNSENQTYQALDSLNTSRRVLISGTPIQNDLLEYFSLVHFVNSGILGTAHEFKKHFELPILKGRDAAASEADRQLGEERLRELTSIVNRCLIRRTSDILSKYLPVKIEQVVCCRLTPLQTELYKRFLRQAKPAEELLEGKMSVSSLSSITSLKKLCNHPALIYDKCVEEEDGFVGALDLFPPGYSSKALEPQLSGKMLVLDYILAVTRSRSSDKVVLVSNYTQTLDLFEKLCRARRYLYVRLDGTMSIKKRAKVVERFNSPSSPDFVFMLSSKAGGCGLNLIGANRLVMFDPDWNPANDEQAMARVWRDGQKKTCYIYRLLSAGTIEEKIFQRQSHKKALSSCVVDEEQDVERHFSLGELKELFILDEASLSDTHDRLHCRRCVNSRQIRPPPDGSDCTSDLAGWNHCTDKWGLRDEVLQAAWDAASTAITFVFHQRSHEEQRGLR", "test": "RAD54 Holliday junction migration blockers – biochemical, fluorescence, cherry-picked samples, dose series, confirmation (AID 651657)", "type": "functional"}, "Cytochrome P450 3A4": {"molecular_target": "Cytochrome P450 3A4 (Homo sapiens, UniProt P08684)", "sequence (P08684 whole entry)": "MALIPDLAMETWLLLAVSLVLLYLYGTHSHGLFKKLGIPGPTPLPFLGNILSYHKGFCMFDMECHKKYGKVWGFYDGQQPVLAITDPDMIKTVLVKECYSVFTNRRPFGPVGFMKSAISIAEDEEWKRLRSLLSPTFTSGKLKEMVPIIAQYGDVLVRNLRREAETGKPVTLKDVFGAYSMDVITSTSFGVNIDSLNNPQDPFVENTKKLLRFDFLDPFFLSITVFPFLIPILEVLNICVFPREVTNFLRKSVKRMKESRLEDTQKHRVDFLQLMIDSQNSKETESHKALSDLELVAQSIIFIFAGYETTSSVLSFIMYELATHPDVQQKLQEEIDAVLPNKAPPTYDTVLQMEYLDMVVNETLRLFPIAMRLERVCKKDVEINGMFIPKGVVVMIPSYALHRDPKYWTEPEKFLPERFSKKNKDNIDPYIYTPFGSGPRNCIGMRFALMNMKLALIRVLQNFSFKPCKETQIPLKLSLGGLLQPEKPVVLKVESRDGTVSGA", "details": "Potency"}, "Fatty acid synthase [5]": {"molecular_target": "T3, Fatty acid synthase (Homo sapiens, UniProt P49327)", "T3 sequence (P49327 whole entry)": "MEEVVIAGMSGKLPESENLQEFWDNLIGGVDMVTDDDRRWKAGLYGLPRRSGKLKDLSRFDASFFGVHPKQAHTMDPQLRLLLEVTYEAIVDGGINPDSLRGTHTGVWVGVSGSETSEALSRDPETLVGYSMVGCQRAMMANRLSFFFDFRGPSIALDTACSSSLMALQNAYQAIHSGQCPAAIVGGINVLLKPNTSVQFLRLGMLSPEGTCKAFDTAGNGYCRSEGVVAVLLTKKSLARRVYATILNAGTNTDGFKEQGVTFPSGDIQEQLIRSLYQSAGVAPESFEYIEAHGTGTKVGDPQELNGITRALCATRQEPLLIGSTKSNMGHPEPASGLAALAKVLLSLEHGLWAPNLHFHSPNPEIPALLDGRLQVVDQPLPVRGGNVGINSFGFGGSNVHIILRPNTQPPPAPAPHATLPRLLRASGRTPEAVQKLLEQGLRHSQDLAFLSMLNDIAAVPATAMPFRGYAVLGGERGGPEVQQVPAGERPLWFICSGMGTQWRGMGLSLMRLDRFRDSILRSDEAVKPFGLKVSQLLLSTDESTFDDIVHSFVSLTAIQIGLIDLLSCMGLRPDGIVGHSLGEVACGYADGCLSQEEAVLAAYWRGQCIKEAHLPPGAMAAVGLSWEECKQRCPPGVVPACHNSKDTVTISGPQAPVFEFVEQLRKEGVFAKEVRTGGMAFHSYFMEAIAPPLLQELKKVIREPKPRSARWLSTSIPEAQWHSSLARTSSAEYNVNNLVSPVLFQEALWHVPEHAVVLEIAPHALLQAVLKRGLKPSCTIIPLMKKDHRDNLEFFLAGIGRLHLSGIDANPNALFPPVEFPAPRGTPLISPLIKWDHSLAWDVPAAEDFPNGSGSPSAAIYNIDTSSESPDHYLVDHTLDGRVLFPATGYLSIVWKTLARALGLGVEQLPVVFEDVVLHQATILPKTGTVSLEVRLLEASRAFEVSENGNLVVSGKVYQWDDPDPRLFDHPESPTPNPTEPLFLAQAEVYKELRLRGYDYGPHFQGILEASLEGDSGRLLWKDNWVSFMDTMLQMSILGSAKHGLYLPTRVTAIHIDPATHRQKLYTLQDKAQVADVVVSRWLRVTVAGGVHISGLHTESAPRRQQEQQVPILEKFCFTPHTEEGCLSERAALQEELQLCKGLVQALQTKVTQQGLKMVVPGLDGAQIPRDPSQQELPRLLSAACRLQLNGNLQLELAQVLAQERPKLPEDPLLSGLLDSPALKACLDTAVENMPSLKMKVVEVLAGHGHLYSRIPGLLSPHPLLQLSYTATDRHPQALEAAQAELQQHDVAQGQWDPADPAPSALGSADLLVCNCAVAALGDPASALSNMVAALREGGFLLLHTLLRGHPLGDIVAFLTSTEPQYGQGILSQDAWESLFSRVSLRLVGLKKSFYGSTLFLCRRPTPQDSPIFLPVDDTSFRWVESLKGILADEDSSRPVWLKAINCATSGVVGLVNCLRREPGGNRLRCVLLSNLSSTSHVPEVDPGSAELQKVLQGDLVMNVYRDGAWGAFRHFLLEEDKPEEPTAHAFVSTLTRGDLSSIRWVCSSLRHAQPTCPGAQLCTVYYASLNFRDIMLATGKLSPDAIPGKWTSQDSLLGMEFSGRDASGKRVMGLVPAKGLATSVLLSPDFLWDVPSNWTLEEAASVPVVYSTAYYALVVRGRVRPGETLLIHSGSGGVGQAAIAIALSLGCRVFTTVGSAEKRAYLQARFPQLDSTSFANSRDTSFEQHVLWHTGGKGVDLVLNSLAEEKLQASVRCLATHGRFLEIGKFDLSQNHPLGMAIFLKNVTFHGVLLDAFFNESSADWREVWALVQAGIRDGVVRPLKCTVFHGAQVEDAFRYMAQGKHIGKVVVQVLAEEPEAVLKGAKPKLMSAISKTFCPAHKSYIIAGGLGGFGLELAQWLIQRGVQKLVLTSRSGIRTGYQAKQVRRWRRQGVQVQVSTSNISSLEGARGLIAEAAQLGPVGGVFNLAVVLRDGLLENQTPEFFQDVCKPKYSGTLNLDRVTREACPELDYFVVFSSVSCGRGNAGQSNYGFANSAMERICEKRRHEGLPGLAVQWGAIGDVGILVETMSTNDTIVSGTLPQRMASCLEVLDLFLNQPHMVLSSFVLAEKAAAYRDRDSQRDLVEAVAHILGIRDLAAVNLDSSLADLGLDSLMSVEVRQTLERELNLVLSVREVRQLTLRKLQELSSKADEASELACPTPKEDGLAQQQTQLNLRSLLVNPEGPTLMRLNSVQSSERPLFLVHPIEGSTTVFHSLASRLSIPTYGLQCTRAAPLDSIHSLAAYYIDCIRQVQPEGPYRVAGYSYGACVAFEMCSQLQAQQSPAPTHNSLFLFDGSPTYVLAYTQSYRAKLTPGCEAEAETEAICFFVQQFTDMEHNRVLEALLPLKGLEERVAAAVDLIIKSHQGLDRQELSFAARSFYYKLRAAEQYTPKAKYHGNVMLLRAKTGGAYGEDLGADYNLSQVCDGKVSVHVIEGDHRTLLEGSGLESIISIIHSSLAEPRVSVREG", "test": "inhibition of human FAS-TE enzyme activity – biochemical, kinetic fluorescence intensity, dose response (AID 624326);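 also: rate of fluorescence rise from hydrolysis of a fluorogenic O-methyl fluorescein ester substrate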", "type": "functional"}, "Fatty acid synthase [6]": {"molecular_target": "T3, Fatty acid synthase", "test": "inhibition of human FAS-TE enzyme activity – biochemical, endpoint fluorescence intensity, uHTS hits, dose response (AID 624327);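 also: fluorescence from hydrolysis of an O-methyl fluorescein acyl ester substrate by the enzyme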", "type": "functional"}, "HEK293 [7]": {"system": "HEK293", "test": "cells", "type": "functional, cell-based", "details": "Homo sapiens"}, "HEK293 [8]": {"system": "HEK293", "test": "cells", "type": "functional, cell-based", "details": "Homo sapiens", "remark": "listed apart in the source"}, "HEK293 [9]": {"system": "HEK293", "test": "NOD2 signaling inhibitors in MDP-stimulated cells, cell-based, uHTS, luminescence (AID 2001)", "type": "functional", "details": "Homo sapiens"}, "[10]": {"molecular_target": "Nucleotide-binding oligomerization domain-containing protein 2 (Homo sapiens, UniProt Q9HC29)", "sequence (Q9HC29 whole entry, the tested form may be a part)": "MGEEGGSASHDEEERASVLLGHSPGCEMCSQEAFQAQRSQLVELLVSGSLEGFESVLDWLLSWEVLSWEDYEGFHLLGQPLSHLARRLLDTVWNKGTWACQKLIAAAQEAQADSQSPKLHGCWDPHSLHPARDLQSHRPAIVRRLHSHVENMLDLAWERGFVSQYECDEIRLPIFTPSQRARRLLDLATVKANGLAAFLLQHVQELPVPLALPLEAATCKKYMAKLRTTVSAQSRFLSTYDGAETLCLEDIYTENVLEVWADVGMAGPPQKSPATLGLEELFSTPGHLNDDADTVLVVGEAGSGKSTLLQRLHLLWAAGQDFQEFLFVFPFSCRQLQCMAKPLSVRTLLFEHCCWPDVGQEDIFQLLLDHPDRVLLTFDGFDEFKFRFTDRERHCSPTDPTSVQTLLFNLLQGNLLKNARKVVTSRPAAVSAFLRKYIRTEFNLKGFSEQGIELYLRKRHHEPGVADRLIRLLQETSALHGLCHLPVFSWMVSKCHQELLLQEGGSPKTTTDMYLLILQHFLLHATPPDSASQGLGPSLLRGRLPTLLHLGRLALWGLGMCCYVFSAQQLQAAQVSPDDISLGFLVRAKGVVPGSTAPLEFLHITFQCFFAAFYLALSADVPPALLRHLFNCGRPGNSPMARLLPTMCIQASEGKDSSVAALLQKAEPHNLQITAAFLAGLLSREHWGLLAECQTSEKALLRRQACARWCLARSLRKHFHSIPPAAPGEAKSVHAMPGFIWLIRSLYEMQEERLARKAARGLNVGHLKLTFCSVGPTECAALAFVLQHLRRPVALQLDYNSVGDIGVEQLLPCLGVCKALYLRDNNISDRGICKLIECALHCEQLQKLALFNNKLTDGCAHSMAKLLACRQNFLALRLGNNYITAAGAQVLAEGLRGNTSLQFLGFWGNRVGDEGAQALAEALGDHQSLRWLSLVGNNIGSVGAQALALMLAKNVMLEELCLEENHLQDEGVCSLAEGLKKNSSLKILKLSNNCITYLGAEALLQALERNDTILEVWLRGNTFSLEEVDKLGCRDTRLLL", "test": "inhibition of NOD2-driven NF-kB reporter – cell-based, luminescence, uHTS, HEK293 (AID 1566)", "type": "functional"}, "HEK293 [11]": {"system": "HEK293", "test": "cells", "type": "functional, cell-based", "details": "Homo sapiens", "remark": "listed apart in the source"}, "HEK293 [12]": {"system": "HEK293", "test": "inhibition of NOD1-driven NF-kB reporter – cell-based, luminescence, uHTS, primary screen (AID 1578)", "type": "functional", "details": "Homo sapiens"}, "HeLa": {"system": "HeLa", "test": "ATP-based viability loss in HeLa cells – cell-based, CellTiter-Glo luminescence, cherry-pick samples, cytotoxicity control for MITF activator project, dose response (AID 540259)", "type": "functional", "details": "Homo sapiens"}, "[13]": {"test": "P. falciparum Dd2 growth inhibitors, dose response, SYBR Green, cherry-picked samples (AID 1159567)", "type": "functional, cell-based"}, "Nonstructural protein 1": {"molecular_target": "Nonstructural protein 1 (Influenza A virus, UniProt Q194T2)", "sequence (Q194T2 whole entry)": "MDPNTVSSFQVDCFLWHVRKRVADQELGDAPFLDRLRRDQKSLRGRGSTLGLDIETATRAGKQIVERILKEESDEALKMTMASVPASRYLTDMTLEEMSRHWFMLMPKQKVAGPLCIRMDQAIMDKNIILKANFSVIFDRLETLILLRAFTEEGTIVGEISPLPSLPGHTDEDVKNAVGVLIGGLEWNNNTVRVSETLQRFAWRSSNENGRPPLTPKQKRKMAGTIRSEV", "type": "functional, Influenza A virus (A/California/07/2009(H1N1))"}, "[14]": {"molecular_target": "T4, Adenosylmethionine-8-amino-7-oxononanoate aminotransferase (Mycobacterium tuberculosis, UniProt P9WQ81)", "T4 sequence (P9WQ81 whole entry)": "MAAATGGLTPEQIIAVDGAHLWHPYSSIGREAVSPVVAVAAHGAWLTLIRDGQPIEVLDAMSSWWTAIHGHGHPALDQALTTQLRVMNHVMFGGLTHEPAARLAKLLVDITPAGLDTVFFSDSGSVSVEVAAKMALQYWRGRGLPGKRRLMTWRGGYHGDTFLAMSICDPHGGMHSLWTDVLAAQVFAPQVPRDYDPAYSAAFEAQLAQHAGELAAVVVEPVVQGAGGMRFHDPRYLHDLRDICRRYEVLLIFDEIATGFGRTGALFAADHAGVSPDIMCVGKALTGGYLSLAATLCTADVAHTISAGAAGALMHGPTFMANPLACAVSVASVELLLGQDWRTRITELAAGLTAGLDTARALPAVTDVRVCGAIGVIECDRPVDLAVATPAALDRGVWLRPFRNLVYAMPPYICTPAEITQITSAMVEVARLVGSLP", "test": "Mycobacterium tuberculosis BioA enzyme inhibitor Measured in Biochemical System Using Plate Reader - 2163-02_Inhibitor_Dose_CherryPick_Activity.", "type": "functional, Mycobacterium tuberculosis UT205"}},
  "note": "The source made the active and inactive calls.",
  "data": [
    {"smiles": "CCCCCCOc1ccc(CN2CCN(C)CC2)cc1", "values": [
      {"measurement": "EC50", "setting": "[1]", "result": "< 0.1 µM (active)"},
      {"measurement": "EC50", "setting": "cells", "result": "0.076 µM (active)"},
      {"measurement": "AC50", "setting": "INS1", "result": "4.04 µM (active)"},
      {"measurement": "EC50", "setting": "[2]", "result": "4.32 µM (active)"}
    ]},
    {"smiles": "C[C@H](CO)N1C[C@H](C)[C@H](CN(C)Cc2ccccc2)Oc2ccc(NC(=O)Nc3ccc(C(F)(F)F)cc3)cc2C1=O", "values": [
      {"measurement": "AC50", "setting": "[3]", "result": "6.57 µM (active)"}
    ]},
    {"smiles": "COc1ccc2[nH]c3nc(SCc4nnc(-c5ccc(C)cc5)o4)nnc3c2c1", "values": [
      {"measurement": "IC50", "setting": "Estrogen receptor", "result": "6.84 µM (active)"}
    ]},
    {"smiles": "Cc1c(-c2cc(Br)ccc2O)nc2cc3c(cc2c1C)OCO3", "values": [
      {"measurement": "AC50", "setting": "[4]", "result": "57.5 µM (active)"}
    ]},
    {"smiles": "CC(=O)C1=C(O)C=C2Oc3c(C(C)=O)c(O)c(C)c(O)c3[C@]2(C)C1=O", "note": "[(-)-USNIC ACID]", "values": [
      {"measurement": "AC50", "setting": "Cytochrome P450 3A4", "result": "31.6 µM (inconclusive)"}
    ]},
    {"smiles": "Cc1ccccc1Cn1c(C)nc2ccc([N+](=O)[O-])cc2c1=O", "values": [
      {"measurement": "IC50", "setting": "Fatty acid synthase [5]", "result": "7.08 µM (active)"},
      {"measurement": "IC50", "setting": "Fatty acid synthase [6]", "result": "9.84 µM (active)"}
    ]},
    {"smiles": "COc1ccccc1NC(=O)CSc1nc2sc(C)c(C)c2c(=O)n1C", "values": [
      {"measurement": "IC50", "setting": "HEK293 [7]", "result": "> 20 µM (inactive)"},
      {"measurement": "IC50", "setting": "HEK293 [8]", "result": "> 20 µM (inactive)"},
      {"measurement": "IC50", "setting": "HEK293 [9]", "result": "8.8 µM (active)"},
      {"measurement": "EC50", "setting": "[10]", "result": "> 20 µM (inactive)"},
      {"measurement": "IC50", "setting": "HEK293 [11]", "result": "12.7 µM (active)"},
      {"measurement": "EC50", "setting": "HEK293 [12]", "result": "> 20 µM (inactive)"}
    ]},
    {"smiles": "Cc1ccc([N+](=O)[O-])cc1S(=O)(=O)NCC1COc2ccccc2O1", "note": "(configuration not stated)", "values": [
      {"measurement": "IC50", "setting": "Fatty acid synthase [5]", "result": "4.43 µM (active)"},
      {"measurement": "IC50", "setting": "Fatty acid synthase [6]", "result": "5.17 µM (active)"}
    ]},
    {"smiles": "O=C(NCCc1cccs1)c1ccc(Cl)c(Cl)c1", "values": [
      {"measurement": "AC50", "setting": "HeLa", "result": "44.2 µM (active)"}
    ]},
    {"smiles": "C[C@H](CO)N1C[C@H](C)[C@@H](CN(C)Cc2ccc(-c3ccccc3)cc2)Oc2c(NC(=O)c3ccc(-c4nccs4)cc3)cccc2C1=O", "values": [
      {"measurement": "AC50", "setting": "[3]", "result": "3.54 µM (active)"},
      {"measurement": "AC50", "setting": "[13]", "result": "5.28 µM (active)"}
    ]},
    {"smiles": "Cc1cccn2c(=O)c(C=C(C#N)C#N)c(N3CCN(c4ccccc4)CC3)nc12", "values": [
      {"measurement": "IC50", "setting": "Nonstructural protein 1", "result": "> 100 µM (active)"}
    ]},
    {"smiles": "COc1ccc(C(=O)CSc2nnc(C3CCCCC3)n2N)c(OC)c1", "values": [
      {"measurement": "IC50", "setting": "Estrogen receptor", "result": "> 50 µM (not active)"}
    ]},
    {"smiles": "CSc1cccc(NC(=O)CN(c2ccccc2)S(=O)(=O)N(C)C)c1", "values": [
      {"measurement": "IC50", "setting": "Estrogen receptor", "result": "> 50 µM (not active)"}
    ]},
    {"smiles": "CC(C)CNC(=O)c1c(N)n(/N=C/c2ccccn2)c2nc3ccccc3nc12", "values": [
      {"measurement": "IC50", "setting": "Estrogen receptor", "result": "15.9 µM (active)"}
    ]},
    {"smiles": "COC(=O)N1[C@H](C)C=C[C@]1(Cc1ccccc1)C(=O)NCc1ccc(C)o1", "values": [
      {"measurement": "AC50", "setting": "Cytochrome P450 3A4", "result": "7.94 µM (inconclusive)"}
    ]},
    {"smiles": "C/C=C/c1ccc2c(c1)O[C@@H](CN(C)C(=O)Nc1ccc(F)cc1)[C@@H](C)CN([C@@H](C)CO)S2(=O)=O", "values": [
      {"measurement": "AC50", "setting": "[14]", "result": "4.65 µM (active)"}
    ]}
  ]
}
